{
  "source": "patent US12258354B2",
  "about": "“AhR modulators” (IDEAYA BIOSCIENCES, INC., priority 2018, dated 2025)",
  "data": [
    {"target": "T1, hAhR (Homo sapiens, UniProt P35869)", "T1 construct": "Stably integrated DRE-luciferase cell lines were generated by transducing the both cell lines with Cignal XRE luciferase reporter; endogenous in cells; host or cells: HEPG2 DRE-Luc cells (only the XRE luciferase reporter was transduced)", "T1 sequence (P35869 11-848)": "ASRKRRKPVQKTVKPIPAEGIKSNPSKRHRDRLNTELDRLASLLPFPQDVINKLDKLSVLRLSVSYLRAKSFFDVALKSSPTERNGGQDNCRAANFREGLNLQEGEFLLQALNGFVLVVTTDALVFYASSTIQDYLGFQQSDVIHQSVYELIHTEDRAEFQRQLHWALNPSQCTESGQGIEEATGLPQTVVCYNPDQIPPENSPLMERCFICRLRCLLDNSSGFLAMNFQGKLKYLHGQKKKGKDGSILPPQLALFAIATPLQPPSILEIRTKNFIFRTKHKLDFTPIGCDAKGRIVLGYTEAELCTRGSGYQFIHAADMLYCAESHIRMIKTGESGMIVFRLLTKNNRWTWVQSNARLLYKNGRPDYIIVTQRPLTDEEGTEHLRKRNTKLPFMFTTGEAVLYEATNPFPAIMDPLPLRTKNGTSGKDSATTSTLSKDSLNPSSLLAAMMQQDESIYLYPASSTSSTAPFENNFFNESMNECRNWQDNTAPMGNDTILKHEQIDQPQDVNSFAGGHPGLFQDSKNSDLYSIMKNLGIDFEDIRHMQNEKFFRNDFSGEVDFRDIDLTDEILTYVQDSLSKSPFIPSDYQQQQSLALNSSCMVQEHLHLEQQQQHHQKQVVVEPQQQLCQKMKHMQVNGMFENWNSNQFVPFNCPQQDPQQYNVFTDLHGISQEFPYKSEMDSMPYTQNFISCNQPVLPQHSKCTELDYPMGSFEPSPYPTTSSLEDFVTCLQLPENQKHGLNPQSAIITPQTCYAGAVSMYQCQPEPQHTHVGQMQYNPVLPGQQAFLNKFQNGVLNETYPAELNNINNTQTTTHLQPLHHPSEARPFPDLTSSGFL", "assay": "DRE-luciferase transcriptional reporter assay in HEPG2 DRE-Luc cells, TCDD-induced (antagonist mode)", "format": "cell-based", "details": "relative IC50, 3 nM TCDD, 24-hour incubation, firefly luciferase readout", "description": "HEPG2 and HEPA1C1C7 cells were maintained in MEM and αMEM without nucleosides supplemented with 10% heat inactivated FBS respectively. Stably integrated DRE-luciferase cell lines were generated by transducing the both cell lines with Cignal XRE luciferase reporter (Qiagen) lentiviral particles according to the manufacturer protocol. For both cell lines stably integrated reporter cell lines were selected for the presence of 2 μg/mL puromycin. Following selection of stably integrated cell line pools, clonal cell lines were isolated by limiting dilution in 96-well plates. Transcriptional assays were performed by seeding 100 μL of cells at a density of 250,000 or 100,000 cells/mL, for HEPG2 and HEPA1C1C7 DRE-Luc cells respectively, into 96-well cell culture plates in OptiMEM supplemented with 0.5% heat inactivated FBS and allowed to attach overnight. For modulator assays, the compounds were added in a semi-log dose response using a D300e Digital Dispenser (Tecan) followed normalization with vehicle (DMSO). Immediately following compound addition 10 μL of 2,3,7,8-Tetrachlorodibenzo-p-dioxin (TCDD) was added to the cells to a final concentration of 3 nM or 0.3 nM for the HEPG2 and HEPA1C1C7 DRE-Luc cells respectively. Following 24-hour incubation, the medium was removed and the cells were lysed in 25 μL of Reporter Lysis Buffer (Promega). Firefly luciferase activity was measured immediately following the addition of 50 μL Luciferase Assay Reagent (Promega). The percent maximal activity for each point was determined using the following equation: (RLUsample−RLUvehicle−TCDD)/(RLUvehicle+TCDD RLUvehicle−TCDD)*100. The relative IC50, defined as the compound concentration required to reduce the TCDD induced response between the top and bottom plateau of each individual dose response curve by half, for each compound was determined using Prism 7 (GraphPad Software).", "units": {"IC50": "nM"}, "values": [
      {"compound": "Cc1cc(-c2ncc3cc(C(F)(F)F)ccc3n2)ccc1N1CCn2nc(CN3CCN(C)C(=O)C3)c(C)c2C1=O", "note": "[Example 104, 3-methyl-2-((4-methyl-3-oxopiperazin-1-yl)methyl)-5-(2-methyl-4-(6-(trifluoro-methyl)quinazolin-2-yl)phenyl)-6,7-dihydropyrazolo[1,5-a]pyrazin-4 (5H)-one]", "IC50": "< 200"},
      {"compound": "Cc1cc(-c2ncc3cc(C(F)(F)F)ccc3n2)ccc1N1CCOc2cn[nH]c2C1=O", "note": "[compound 033]", "IC50": "< 200"},
      {"compound": "Cc1cc(-c2ncc3cc(C(F)(F)F)ccc3n2)ccc1N1CCn2nc(C(=O)N[C@H](C)CO)c(C)c2C1=O", "note": "[compound 080, (R)-N-(1-hydroxypropan-2-yl)-3-methyl-5-(2-methyl-4-(6-(trifluoromethyl)-quinazolin-2-yl)phenyl)-4-oxo-4,5,6,7-tetrahydropyrazolo[1,5-a]pyrazine-2-carboxamide]", "IC50": "< 200"},
      {"compound": "Cc1cc(-c2ncc3cc(C(F)(F)F)ccc3n2)ccc1N1CCn2nc(CN3CCOC(C)C3)c(C)c2C1=O", "note": "(stereo not shown) [compound 091, 3-methyl-5-(2-methyl-4-(6-(trifluoromethyl)quinazolin-2-yl)phenyl)-2-((2-methylmorpholino)methyl)-6,7-dihydropyrazolo[1,5-a]pyrazin-4 (5H)-one]", "IC50": "< 200"},
      {"compound": "Cc1cc(-c2ncc3cc(C(F)(F)F)ccc3n2)ccc1N1CCn2nc(CN3CCC4(CC3)COC4)c(C)c2C1=O", "note": "[Example 102, 2-((2-oxa-7-azaspiro[3.5]nonan-7-yl)methyl)-3-methyl-5-(2-methyl-4-(6-(trifluoromethyl)quinazolin-2-yl)phenyl)-6,7-dihydropyrazolo[1,5-a]pyrazin-4 (5H)-one]", "IC50": "< 200"},
      {"compound": "Cc1cc(-c2ncc3cc(C(F)(F)F)ccc3n2)ccc1N1CCOc2cn(CC#N)nc2C1=O", "note": "[compound 035, 2-(7-(2-methyl-4-(6-(trifluoromethyl)quinazolin-2-yl)phenyl)-8-oxo-5,6,7,8-tetrahydro-2H-pyrazolo[3,4-f][1,4]oxazepin-2-yl)acetonitrile]", "IC50": "< 200"},
      {"compound": "Cc1cc(-c2ncc3nc(C(F)(F)F)ccc3n2)ccc1N1CCOc2c(C(C)O)nn(C)c2C1=O", "note": "(stereo not shown) [compound 083, 3-(1-hydroxyethyl)-1-methyl-7-(2-methyl-4-(6-(trifluoromethyl)-pyrido[3,2-d]pyrimidin-2-yl)phenyl)-6,7-dihydro-1H-pyrazolo[3,4-f][1,4]oxazepin-8 (5H)-one]", "IC50": "< 200"},
      {"compound": "Cc1cc(-c2ncc3nc(F)ccc3n2)ccc1N1CCOc2cnn(C)c2C1=O", "note": "[compound 051, 7-(4-(6-fluoropyrido[3,2-d]pyrimidin-2-yl)-2-methylphenyl)-1-methyl-6,7-dihydro-1H-pyrazolo[3,4-f][1,4]oxazepin-8 (5H)-one]", "IC50": "200 to 500"},
      {"compound": "Cc1cc(-c2ncc3cc(C(F)(F)F)ccc3n2)ccc1N1CCn2ncc(C#N)c2C1=O", "note": "[compound 067, 5-(2-methyl-4-(6-(trifluoromethyl)quinazolin-2-yl)phenyl)-4-oxo-4,5,6,7-tetrahydropyrazolo[1,5-a]pyrazine-3-carbonitrile]", "IC50": "< 200"},
      {"compound": "Cc1cc(-c2ccc3nc(C(F)(F)F)ccc3n2)ccc1N1CCn2nc(CN3CCOCC3)c(C)c2C1=O", "note": "[Example 106, 3-methyl-5-(2-methyl-4-(6-(trifluoromethyl)-1,5-naphthyridin-2-yl)phenyl)-2-(morpholinomethyl)-6,7-dihydropyrazolo[1,5-a]pyrazin-4 (5H)-one]", "IC50": "< 200"},
      {"compound": "Cc1cc(-c2ncc3cc(C(F)(F)F)ccc3n2)ccc1N1CCOc2cnn(CCN3CCC(F)(F)CC3)c2C1=O", "note": "[compound 073, 1-(2-(4,4-difluoropiperidin-1-yl)ethyl)-7-(2-methyl-4-(6-(trifluoromethyl)-quinazolin-2-yl)phenyl)-6,7-dihydro-1H-pyrazolo[3,4-f][1,4]oxazepin-8 (5H)-one]", "IC50": "1000 to 10000"},
      {"compound": "Cc1cc(-c2ncc3cc(C(F)(F)F)ccc3n2)ccc1N1Cc2cnn(C)c2C1=O", "note": "[compound 014, 1-methyl-5-(2-methyl-4-(6-(trifluoromethyl)quinazolin-2-yl)phenyl)-4,5-dihydropyrrolo[3,4-c]pyrazol-6 (1H)-one]", "IC50": "< 200"},
      {"compound": "Cc1cc(N2CCn3ncc(C)c3C2=O)c(C)cc1-c1ccc2nc(C(F)(F)F)cc(C)c2n1", "note": "[compound 020, 5-(2,5-dimethyl-4-(8-methyl-6-(trifluoromethyl)-1,5-naphthyridin-2-yl)phenyl)-3-methyl-6,7-dihydropyrazolo[1,5-a]pyrazin-4 (5H)-one]", "IC50": "< 200"},
      {"compound": "Cc1cc(N2CCn3ncc(C)c3C2=O)c(F)cc1-c1ncc2nc(C(F)(F)F)ccc2n1", "note": "[compound 021, 5-(2-fluoro-5-methyl-4-(6-(trifluoromethyl)pyrido[3,2-d]pyrimidin-2-yl)phenyl)-3-methyl-6,7-dihydropyrazolo[1,5-a]pyrazin-4 (5H)-one]", "IC50": "< 200"},
      {"compound": "Cc1cc(-c2ncc3nc(C(F)(F)F)ccc3n2)ccc1N1CCOc2nn(C)nc2C1=O", "note": "[compound 042, 2-methyl-7-(2-methyl-4-(6-(trifluoromethyl)pyrido[3,2-d]pyrimidin-2-yl)phenyl)-6,7-dihydro-2H-[1,2,3]triazolo[4,5-f][1,4]oxazepin-8 (5H)-one]", "IC50": "200 to 500"},
      {"compound": "Cc1cc(-c2ncc3nc(C(F)(F)F)ccc3n2)ccc1N1CCOc2c(CO)nn(C)c2C1=O", "note": "[compound 082, 3-(hydroxymethyl)-1-methyl-7-(2-methyl-4-(6-(trifluoromethyl)-pyrido-[3,2-d]pyrimidin-2-yl)phenyl)-6,7-dihydro-1H-pyrazolo[3,4-f][1,4]oxazepin-8 (5H)-one]", "IC50": "< 200"},
      {"compound": "Cc1cc(-c2ncc3cc(C(F)(F)F)ccc3n2)ccc1N1CCn2nc(CN3CCS(=O)(=O)CC3)c(C)c2C1=O", "note": "[Example 101, 2-((1,1-dioxidothiomorpholino)methyl)-3-methyl-5-(2-methyl-4-(6-(trifluoro-methyl)quinazolin-2-yl)phenyl)-6,7-dihydropyrazolo[1,5-a]pyrazin-4 (5H)-one]", "IC50": "< 200"},
      {"compound": "Cc1cc(-c2ncc3cc(C(F)(F)F)ccc3n2)ccc1N1CCOc2nn(C)nc2C1=O", "note": "[compound 043, 2-methyl-7-(2-methyl-4-(6-(trifluoromethyl)quinazolin-2-yl)phenyl)-6,7-dihydro-2H-[1,2,3]triazolo[4,5-f][1,4]oxazepin-8 (5H)-one]", "IC50": "1000 to 10000"},
      {"compound": "Cc1cc(-c2ncc3cc(C(F)(F)F)ccc3n2)ccc1N1CCn2nc(CN3CCC(O)CC3)c(C)c2C1=O", "note": "[Example 100, 2-((4-hydroxypiperidin-1-yl)methyl)-3-methyl-5-(2-methyl-4-(6-(trifluoromethyl)-quinazolin-2-yl)phenyl)-6,7-dihydropyrazolo[1,5-a]pyrazin-4 (5H)-one]", "IC50": "< 200"},
      {"compound": "Cc1cc(-c2ncc3cc(C(F)(F)F)ccc3n2)ccc1N1CCn2nc(C(=O)N3CCN(C)CC3)c(C)c2C1=O", "note": "[Example 107, 3-methyl-5-(2-methyl-4-(6-(trifluoromethyl)quinazolin-2-yl)phenyl)-2-(4-methylpiperazine-1-carbonyl)-6,7-dihydropyrazolo[1,5-a]pyrazin-4 (5H)-one]", "IC50": "< 200"},
      {"compound": "Cc1cc(-c2ncc3cc(C(F)(F)F)ccc3n2)ccc1N1CCn2nc(COP(=O)(O)O)c(C)c2C1=O", "note": "[Example 97, (3-methyl-5-(2-methyl-4-(6-(trifluoromethyl)quinazolin-2-yl)phenyl)-4-oxo-4,5,6,7-tetrahydropyrazolo[1,5-a]pyrazin-2-yl)methyl dihydrogen phosphate]", "IC50": "< 200"},
      {"compound": "Cc1cc(-c2ccc3nc(C(F)(F)F)ccc3n2)ccc1N1CCn2ncc(C)c2C1=O", "note": "[compound 006, 3-methyl-5-(2-methyl-4-(6-(trifluoromethyl)-1,5-naphthyridin-2-yl)phenyl)-6,7-dihydropyrazolo[1,5-a]pyrazin-4 (5H)-one]", "IC50": "< 200"}
    ]}
  ]
}
